Results taken from patent publication US20230372263A1, “METHODS AND COMPOSITIONS FOR TREATING AMYOTROPHIC LATERAL SCLEROSIS” (Amylyx Pharmaceuticals, Inc., priority 2022, published 2023).

Key:
[1] = clinical; type: in vivo, human; settings: human, in vivo
Experimental: • 1. […] Treatment is administered as one sachet daily for the initial 3 weeks and then increased if tolerated to one sachet twice daily. […] Sampling times are randomly assigned to occur at either 1 or 4 hours post-dose at the 12 week visit and the other time at the 24 week visit. • Treatment duration: 24 weeks • 2.
(§1) • Protocol AMX3500: sparse sampling in 87 subjects with ALS. Approximately 2 samples are collected for each subject, 1 or 4 hours post dose following 12 and 24 weeks of treatment. • Protocol A35-002: rich sampling in 14 healthy adults. Approximately 21 samples are collected over 24 hours for each subject on two occasions, once following a high fat meal and the other under fasting conditions.
Subjects were advised to take the drug before a meal. […] Referred to as protocol 3500.
A study was carried out to examine plasma concentration data in various subgroups for the protocol AMX3500 Phase 2 study. This example summarizes plasma concentrations of TUDCA and 2 metabolites, also related acids, UDCA, the de-conjugated TUDCA metabolite, and GUDCA, the glycine conjugate of UDCA.
For each of the 2 treatment arms (treatment and placebo), subjects were further divided into 2 sample sequence groups for schedule of pharmacokinetic measurements: • 1. 1 hour post-dose for the Week 12 visit and 4 hours post-dose for the Week 24 visit • 2. 4 hours post-dose for the Week 12 visit and 1 hour post-dose for the Week 24 visit
Twenty-four distinct medication descriptions were identified as containing antibiotics. Dates of antibiotic use were compared to dates of visits and if the antibiotic use date range contained the visit date, then that visit was flagged for that subject's data for antibiotic use. […] These antibiotics could hypothetically be in a subject's body still if this event occurred. However, it was observed that only a small number of subjects took antibiotics near to visit dates but not overlapping visit dates. In other cases, subjects were taking antibiotics on the date of one visit but not the others. Some subjects are therefore in both categories of antibiotic use and nonuse, though no individual visits for a subject are counted in both categories at the same time.
Subjects whose race were recorded as “Black” or “African American” were evaluated according to the standard Glomerular Filtration Rate (eGFR) rating for that race. The other standard eGFR rating used, sometimes referred to as a standard for people who are White, was applied to subjects of all other races. These rates were analyzed as continuous in mL/min/1.73 m2 units and as the following categories: • 1. Less than 90 mL/min/1.73 m^2 • 2. Equal to or greater than 90 mL/min/1.73 m^2
Age was converted from a continuous variable to 2 categories: • 1. As old or older than 65 years old • 2. Younger than 65 years old
All boxplots boxes are bounded at the 25th and 75th percentile, with whiskers at 10th and 90th percentiles, outliers beyond that as points, the black line as median, and red line as mean.

[2] = clinical; type: in vivo, human; settings: human, in vivo; remark: listed apart in the source
Experimental: as §1
A total of 14 healthy subjects were enrolled in order to have no fewer than 12 subjects complete. A predefined mix of gender was selected.
Each study period followed the same study design (FIG. 1). Subjects were screened for inclusion in the study up to 28 days before dosing. Subjects were admitted to the clinical unit during Study Day −2 for Period 1 and Day −1 for Period 2 and were dosed in the morning of Day 1. On the night prior to Period 1 the subjects in the fasted/fed or fed/fasted sequence were fasted for a minimum of 10 h prior to dosing.
The solution was stirred until the powder was mostly dissolved.
Any departures from the intended regimen were recorded in the eCRFs. All dose administrations were performed in the study center under the supervision of appropriately trained staff.
Subjects were provided with a light snack and were then fasted from all food and drink (except water) until the following morning, when they were provided with a high-fat breakfast. The breakfast was consumed over a maximum period of 25 min, and dosing occurred 30 min after the start of breakfast. Subjects were encouraged to eat their meal evenly over the 25 min period. For this trial the subject was deemed compliant if they consumed >80% of the high-fat standard breakfast.
The subjects in the 24-h baseline and in the fasted condition Period remained fasted up to 4 h post-dose and were offered a standardized meal to be taken between 4.00 and 5.00 h post-dose. Subjects in the fed condition were fasted overnight and received a high-fat standard breakfast 30 minutes pre-dose and then remained fasted for 4.00 to 5.00 h post-dose when they received a standardized meal.
Venous blood samples were withdrawn via an indwelling cannula or by venipuncture according to the time schedule presented in Table 5 Table, Table 6, and Table 7.
Blood samples of approximately 4 mL were collected into 4 mL BD Vacutainer Plastic K2EDTA Tubes with Lavender Hemogard Closure, and was gently inverted approximately 8 times. The tubes were then immediately stored on ice and processed within 60 min of collection by centrifugation at 1500 g for 10 min at 2 to 8° C. The resultant plasma was separated equally into 2 aliquots and transferred to 2 mL appropriately labelled primary and backup polypropylene cryovials.
Actual elapsed time from dosing was to be used for the final plasma PK parameter calculations after database lock.

[3] = Plasma protein binding in vitro; type: in vitro ADME; settings: plasma, co-administered in vitro
[4] = Population pharmacokinetic model and simulations of PB and PAA (healthy subjects and ALS patients); parameters: species or system human; settings: for Cmax, Mean: from individual Bayesian (post hoc) parameter estimates; for Cmax, 2.5th percentile / Cmax, 97.5th percentile / Cmax, Geometric mean / Cmax, Median: post hoc Bayesian estimates; for CL/F, apparent (oral) metabolic clearance of phenylbutyrate to phenylacetate / Ka, PB oral absorption rate constant under fasting conditions / Ka, oral absorption rate constant when phenylbutyrate is administered with food / V/F, apparent volume of distribution of phenylbutyrate: population PK
Text: The order of administration with and without food was randomly assigned. […] Subjects were advised to take the drug before a meal. […] No inter-occasion variability (IOV) was included.

[5] = within 24 hours; cited from earlier work

O=C(O)CCCc1ccccc1 [PB, sodium phenylbutyrate]
accumulation in plasma after once- or twice-daily dosing [1]: no accumulation | half-life ([2]; both sexes, T1/2): 27.6 min | Tmax ([2]; both sexes, Tmax): 30 min | Tmax ([2]; both sexes, Tmax Median): 30 min | half-life ([2]; both sexes, elimination half-lives (range)): 24 to 42.6 min | Cmax ([2]; both sexes, mean Cmax): 188 µg/mL | Cmax ([2]; both sexes, po, Cmax): 188 µg/mL | AUC(0-inf) Adj Geo Mean ([2]; both): 261 µg·h/mL | AUC(0-last), Adj Geo Mean ([2]; both): 241 µg·h/mL | Cmax, Adj Geo Mean ([2]; both): 191 µg/mL | Tmax ([2]; both): 15 min | concentrations remained quantifiable until ([2]; both): 3.00 to 5.00 h | decrease in AUC with high-fat, high-calorie meal ([2]; both): 55% | time at which plasma concentrations typically peaked ([2]; both): 0.5 to 1 h | time by which eliminated from systemic circulation ([2]; both): ≤ 6 h | time by which plasma concentrations fell below LLOQ ([2]; both): 4 to 5 h | time from which plasma concentrations were evident ([2]; both): 0.25 h | time of maximum plasma concentrations (range) ([2]; both): 0.25 to 0.50 h | median time to Cmax [2]: 1 h | fraction unbound [3]: 0.18 | effect of age on pharmacokinetics ([4]; ALS patients aged 65-76 versus less than 65 years, model-based analysis): no significant difference | Cmax, Mean ([4]; ALS patients, Fasting): 131 µg/mL | Cmax, 2.5th percentile ([4]; ALS patients, Fasting): 10.3 µg/mL | Cmax, 97.5th percentile ([4]; ALS patients, Fasting): 414 µg/mL | Cmax, Geometric mean ([4]; ALS patients, Fasting): 90.9 µg/mL | Cmax, Median ([4]; ALS patients, Fasting): 97.9 µg/mL | Cmax, Mean ([4]; ALS patients, Fed): 48.4 µg/mL | Cmax, 2.5th percentile ([4]; ALS patients, Fed): 8.74 µg/mL | Cmax, 97.5th percentile ([4]; ALS patients, Fed): 112 µg/mL | Cmax, Geometric mean ([4]; ALS patients, Fed): 39.4 µg/mL | Cmax, Median ([4]; ALS patients, Fed): 43.9 µg/mL | estimated steady-state mean Cmax ([4]; ALS patients, based on population PK): 131 µg/mL | terminal elimination half-life ([4]; based on typical values for CLPB/F and VPB/F): 27 min | effect of mild renal insufficiency on pharmacokinetics ([4]; eGFR greater than 60 mL/min, model-based analysis): no significant correlation | decrease in Ka, fed versus fasting ([4]; final model projection): 60% | relationship between exposure and body weight ([4]; population PK analysis): not appreciably affected by body weight | CL/F, apparent (oral) metabolic clearance of phenylbutyrate to phenylacetate ([4]; Bootstrap Median): 14.7 L/h | Ka, PB oral absorption rate constant under fasting conditions ([4]; Bootstrap Median): 1.96 | Ka, oral absorption rate constant when phenylbutyrate is administered with food ([4]; Bootstrap Median): 0.779 | V/F, apparent volume of distribution of phenylbutyrate ([4]; Bootstrap Median): 9.7 L | CL/F, apparent (oral) metabolic clearance of phenylbutyrate to phenylacetate ([4]; Final Model mean estimate): 14.8 L/h | Ka, PB oral absorption rate constant under fasting conditions ([4]; Final Model mean estimate): 1.92 | Ka, oral absorption rate constant when phenylbutyrate is administered with food ([4]; Final Model mean estimate): 0.767 | V/F, apparent volume of distribution of phenylbutyrate ([4]; Final Model mean estimate): 9.6 L | fraction excreted in the urine as phenylacetylglutamine [5]: 80-100%
